For data set [1], the system named is fatty acid synthase (FAS) mRNA. Put plainly: Real-time PCR of FAS mRNA in cultured AML-12 hepatocytes. The class given is cell-based, mouse. The conditions noted are these: AML-12 cells, 24 hours; for mRNA for FAS: 10^-6M, control 100.0%, n=3. As for the experimental part:
(§1) Total RNA was isolated from cultured hepatocytes using Trizol reagent (Invitrogen, USA) and RNA extracted according to the manufacturer's instructions, then dissolved in sterile DEPC water and stored at −80° C. 1 μg RNA of sample RNA was transcribed to cDNA with the GeneAmp RNA Core Kit (Applied Biosystems, Branchburg, N.J.). Primer sequences ATP citrate lyase (ACL): forward 5′-GAAGCTGACCTTGCTGAACC-3′, reverse 5′-CTGCCTCCAATGATGAGGAT-3′; fatty acid synthase (FAS): forward 5′-TGGGTTCTAGCCAGCAGAGT-3′, reverse: 5′-ACCACCAGAGACCGTTATGC-3′. PCR was performed with the SYBR Green PCR Kit (Applied Biosystems, Foster City, Calif.) following the manufacturer's instructions and carried out on the Mx3005P™ Q-PCR system (Stratagene, La Jolla, Calif.) in 50 μl volume. The number of copies for each amplicon was calculated by Mx3005P software, normalized to GAPDH and expressed as a dimensionless ratio.

The test system of data set [2] is AML-12 hepatocytic cells. Kind of data set: Fat accumulation in AML-12 cells: Oil Red O staining and cellular triglyceride (Example 7). The conditions noted are these: twenty-four hours; for intracellular triglyceride levels / lipid accumulation by Oil Red O staining / blockade of the effect of NECA on hepatocyte triglyceride accumulation: NECA 10 mM; for blockade of the effect of NECA on hepatocyte triglyceride accumulation: MRS1706 1 mM. As for the experimental part:
Hepatocyte cell culture, triglyceride measurement and oil red O staining of hepatocytes. […] AML-12 Cells were grown in 1:1 mixture of DMEM-Ham's F-12 medium supplemented with 0.005 mg/ml insulin, 0.005 mg/ml transferrin, 5 ng/ml selenium, 40 ng/ml dexamethasone, 10% fetal bovine serum and antibiotics. Upon reaching 70-80% confluence the cells were treated for 6 hours in serum-free DMEM-Ham's F-12 medium and then treated with different adenosine receptor agonists, antagonists or vehicle (DSMO, 1.28×10^−5M), respectively. The method of the triglyceride measurement of hepatocytes is the same as the liver tissue. The cells were fixed with 10% neutral formalin, and Oil Red O staining as described above.

The subject of data set [3] is AML-12 mouse hepatocyte cell line. Kind of data set: Oil Red O staining, lipid content of AML-12 hepatocytes (Example 1). Format: cell-based. Conditions: AML-12 cells, 24 hours.
Data set [4] deals with ATP citrate lyase (ACL) mRNA. Kind of data set: Real-time PCR of ACL mRNA in cultured AML-12 hepatocytes. Conditions: AML-12 cells, 24 hours; for mRNA for ACL: 10^-6M, control 100.0%, n=3. The class given is cell-based, mouse. On the procedure:
as §1

Data set [5] has as its system ACL, FAS, ACCα, CPTI, PPARα, PPARγ and SREBP1 mRNA in mouse liver tissue. Put plainly: Real-time PCR of hepatic mRNA expression in ethanol-fed mice (Example 6). Format: in vivo. The conditions noted are these: chronic ethanol ingestion, 50 mg/Kg/Day, n=5.
Description: Real-time PCR quantitation of mRNA. Total RNA was isolated from liver tissue using Trizol reagent (Invitrogen, USA) and RNA extracted according to the manufacturer's instructions, then dissolved in sterile DEPC water and stored at −80° C. 1 μg of sample RNA was transcribed to cDNA with the GeneAmp RNA Core Kit (Applied Biosystems, Branchburg, N.J.). […] The number of copies for each amplicon was calculated by Mx3005P software, normalized to GAPDH and expressed as a dimensionless ratio.
Materials and methods. mRNA expression of genes in hepatic tissue was assessed by Real-time PCR and normalized to GAPDH. […] The number of copies for each amplicon was calculated by Mx3005P software, normalized to GAPDH and expressed as a dimensionless ratio.
Data set [6] deals with ethanol-induced fatty liver in C57Bl/6 mice. Kind of data set: Ethanol-induced fatty liver in mice treated with adenosine receptor antagonists (Example 5). The class given is in vivo, mouse. The conditions noted are these: ethanol diet 6 weeks, 50 mg/Kg/Day, versus ethanol-treated wild type mice. An excerpt:
Mouse models of fatty livers and treatment. Mice were fed an ethanol-containing liquid Lieber-De-Carli diet (ethanol provides 350 Kcal/L) or a calorie equivalent diet supplemented with maltose (BioServ Inc., Frenchtown, N.J.) for 6 weeks. […] In first week, animals were gradually introduced to the ethanol diet following the manufacturer's instructions. Mice were sacrificed by CO2 narcosis at the end of the experiment and their livers were collected. Two wild type mice and one CD73 knockout mouse on an ethanol-containing diet died, and none of the antagonist-treated or other knockout mice died during the course of these experiments.
Hematoxylin-Eosin (H&E) and Oil Red O staining of liver sections. Livers were fixed with 10% neutral formalin, embedded in paraffin and stained with H&E for histological examination. Liver steatosis was graded as previously described (Hong et al., Hepatology (2004) 40:933-941) based on the semiquantitative estimation of the percentage of lipid-laden hepatocytes in the liver according to the following criteria: grade 0: no hepatocytes involved; grade 1: 1% to 25% of hepatocytes involved; grade 2: 26% to 50% of hepatocytes involved; grade 3: 51% to 75% of hepatocytes involved; and grade 4: 76% to 100% of hepatocytes involved. At least five random different high power fields (hpf) of each cross-section (400× magnification) were graded in a blinded way. […]
Measurements of serum AST and triglyceride. […] AST and triglyceride were measured by standard techniques in the Clinical Laboratory of Bellevue Hospital. […]
Materials and Methods. […] The liver and body of the mice were weighed on the day of sacrifice and the liver/total body weight ratio calculated. The serum AST and triglyceride and hepatic tissue triglyceride levels were also measured, as described in Example 3, supra. […]

For the molecule `OC[C@H]1O[C@@H](n2cnc3c(NC4CCCC4)ncnc32)[C@H](O)[C@@H]1O` [CPA, N6-cyclopentyladenosine], the “mRNA for FAS” value in data set [1] was determined as 164.2±6.8%. In data set [2] (CPA 1 mM), the intracellular triglyceride levels entry was “increased” and the “lipid accumulation by Oil Red O staining” value was “accumulated lipid”. Besides, in data set [3] (CPA 10^-6M, Oil Red O), the “lipid content of hepatocytes” value is reported as “significantly increased”. In data set [4], the “mRNA for ACL” value was 181.4±12.9%.

As for `CCCn1c(=O)c2[nH]c(C3CCCC3)nc2n(CCC)c1=O` [DPCPX, 1,3 dipropyl-8-cyclopentylxantine], in data set [5], the “ethanol-induced change of mRNA expression of ACCα, CPT1 and PPARα in liver” value was “reduced”; the “ethanol-induced mRNA expression of ACL, FAS, PPARγ and SREBP1 in liver” value is reported as “prevented the ethanol-induced increase in expression”. Also, in data set [1], the “blockade of the CPA-induced increase of mRNA for FAS” value was “completely blocked” and the “mRNA for FAS” value came to 105.8±5.3%. The “blockade of the effect of CPA on hepatocyte triglyceride accumulation” value in data set [2] (CPA 1 mM, DPCPX 1mM) is “almost completely abrogated”. The “blockade of the effect of NECA on hepatocyte triglyceride accumulation” value in data set [2] (DPCPX 1mM) is reported as “partly blocked”. Besides, the “serum AST levels” value in data set [6] is “significantly lower”. The “blockade of the effect of CPA on lipid content of hepatocytes” value in data set [3] (CPA 10^-6M + DPCPX 10^-6M) is “nearly completely blocked”. For the same molecule, in data set [4], the “blockade of the CPA-induced increase of mRNA for ACL” value is “completely blocked” and the “mRNA for ACL” value stood at 92.0±5.2%.

Take `CCCn1c(=O)c2[nH]c(-c3ccc(OCC(=O)Nc4ccc(C(C)=O)cc4)cc3)nc2n(CCC)c1=O` [MRS1706, N-(4-aceptylphenyl)-2-[4-(2,3,6,7-tetrahydro-2,6-dioxo-1,3-dipropyl-1H-purine-8-yl)phenoxy]acetamide]: in data set [2] (DPCPX 1mM), the “blockade of the effect of NECA on hepatocyte triglyceride accumulation” value is recorded as “almost completely abrogated”.

In the case of `CCNC(=O)[C@H]1O[C@@H](n2cnc3c(N)ncnc32)[C@H](O)[C@@H]1O` [NECA, 5′-N-ethylcarboxamidoadenosine], in data set [2] (CPA 1 mM), the intracellular triglyceride levels result is listed as “increased” and the “lipid accumulation by Oil Red O staining” value is reported as “accumulated lipid”.

`CCCn1c(=O)[nH]c(=O)c2[nH]cnc21` [enprofylline, 3-propylxanthine]: in data set [6], the “serum AST levels” value is reported as “significantly lower” and the serum triglyceride levels entry is “significant reduction”.

The record behind these values is patent US20090208550A1, “Methods and compositions for treating hepatic diseases” (priority 2007, published 2009).
